Laboratory results published in US12492173B2, “Herbicidal substituted N-tetrazolyl aryl carboxamides” (Bayer Aktiengesellschaft, priority 2019, dated 2025).

Key:
Type in all cases: in vivo
[1] = test system: Amaranthus retroflexus; assay: Pre-emergence herbicidal action, AMARE; conditions: dosage 320 g/ha
Summary of the method: (§1)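 Pre-emergence soil spray over sandy loam-covered seeds; greenhouse 3 weeks; % visual damage (0% = control, 100% = dead).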

[2] = test system: Echinochloa crus-galli; assay: Pre-emergence herbicidal action, ECHCG; conditions: dosage 320 g/ha
Summary of the method: as §1

[3] = test system: Matricaria inodora; assay: Pre-emergence herbicidal action, MATIN; conditions: dosage 320 g/ha
Summary of the method: as §1

[4] = test system: Stellaria media; assay: Pre-emergence herbicidal action, STEME; conditions: dosage 320 g/ha
Summary of the method: as §1

[5] = test system: Veronica persica; assay: Pre-emergence herbicidal action, VERPE; conditions: dosage 320 g/ha
Summary of the method: as §1

[6] = test system: Abutilon theophrasti; assay: Post-emergence herbicidal action, ABUTH; set-up: key: % herbicidal action vs untreated; 100 = plants died, 0 = like control; conditions: for herbicidal action ABUTH: Dosage 80 g/ha
Summary of the method: (§2)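 Percent herbicidal effect was rated visually about 3 weeks after treatment, relative to untreated plants (0% = like control, 100% = dead). Compounds, formulated as WP or EC, went on as aqueous spray (600–800 l/ha, 0.2% wetting agent) to one-leaf-stage plants 2–3 weeks post-sowing in sandy loam.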

[7] = test system: Alopecurus myosuroides; assay: Post-emergence herbicidal action, ALOMY; set-up: key: % herbicidal action vs untreated; 100 = plants died, 0 = like control; conditions: Dosage 80 g/ha
Description: (§3) [table] 2. Post-Emergence Herbicidal Action Against Harmful Plants Seeds of monocotyledonous and dicotyledonous weed and crop plants are laid out in sandy loam soil in wood-fiber pots, covered with soil and cultivated in a greenhouse under good growth conditions. 2 to 3 weeks after sowing, the test plants are treated at the one-leaf stage. The compounds of the invention, formulated in the form of wettable powders (WP) or as emulsion concentrates (EC), are then sprayed onto the green parts of the plants in the form of an aqueous suspension or emulsion at a water application rate equating to 600 to 800 l/ha, with addition of 0.2% wetting agent. After the test plants have been left to stand in the greenhouse under optimal growth conditions for about 3 weeks, the action of the preparations is assessed visually in comparison to untreated controls (herbicidal action in percent (%): 100% activity=the plants have died, 0% activity=like control plants). […] The tables below illustrate, in an exemplary manner, the post-emergence herbicidal action of the compounds according to the invention, the herbicidal activity being stated in percent. In the experiments that follow, herbicidal action of numerous inventive compounds and the known compounds that are structurally closest from D1 (WO 2012/028579 A1) and D2 (WO 2018/202535 A1) were compared under the above-specified conditions by the pre-emergence and post-emergence method. The example numbers given in the tables relate to the compounds disclosed in the respective documents. In addition to the compounds disclosed in D1 and D2, the following compounds V-1 to V-14 that are encompassed by D1 or D2 but are not compounds specified therein were used in the comparative experiments: • V-1: 2-(methylsulfanyl)-3-(methylsulfinyl)-N-(1-methyl-1H-tetrazol-5-yl)-4-(trifluoromethyl)benzamide • V-2: 2-(methylsulfanyl)-3-(methylsulfonyl)-N-(1-methyl-1H-tetrazol-5-yl)-4-(trifluoromethyl)benzamide • V-3: 2,3-bis(ethylsulfanyl)-N-(1-methyl-1H-tetrazol-5-yl)-4-(trifluoromethyl)benzamide • V-4: 2-chloro-3-(ethylsulfanyl)-N-(1-methyl-1H-tetrazol-5-yl)-4-(trifluoromethyl)benzamide • V-5: 2-chloro-4-iodo-3-(methylsulfanyl)-N-(1-methyl-1H-tetrazol-5-yl)benzamide • V-6: 2-chloro-4-iodo-3-(methylsulfinyl)-N-(1-methyl-1H-tetrazol-5-yl)benzamide • V-7: 2-chloro-4-iodo-3-(methylsulfonyl)-N-(1-methyl-1H-tetrazol-5-yl)benzamide • V-8: 2-bromo-3-(methylsulfanyl)-N-(1-methyl-1H-tetrazol-5-yl)-4-(trifluoromethyl)benzamide • V-9: 2-bromo-3-(methylsulfinyl)-N-(1-methyl-1H-tetrazol-5-yl)-4-(trifluoromethyl)benzamide • V-10: 2-bromo-3-(methylsulfonyl)-N-(1-methyl-1H-tetrazol-5-yl)-4-(trifluoromethyl)benzamide • V-11: 2-bromo-3-(ethylsulfanyl)-N-(1-methyl-1H-tetrazol-5-yl)-4-(trifluoromethyl)benzamide • V-12: 2-bromo-3-(ethylsulfinyl)-N-(1-methyl-1H-tetrazol-5-yl)-4-(trifluoromethyl)benzamide • V-13: 2-bromo-3-(ethylsulfonyl)-N-(1-methyl-1-1H-tetrazol-5-yl)-4-(trifluoromethyl)benzamide • V-14: 2-cyclopropyl-3-(ethylsulfanyl)-N-(1-methyl-1H-tetrazol-5-yl)-4-(trifluoromethyl)benzamide Herbicidal Pre-Emergence Action: […]

[8] = test system: Amaranthus retroflexus; assay: Post-emergence herbicidal action, AMARE; set-up: key: % herbicidal action vs untreated; 100 = plants died, 0 = like control; conditions: for herbicidal action AMARE: Dosage 80 g/ha
Summary of the method: as §2

[9] = test system: Echinochloa crus-galli; assay: Post-emergence herbicidal action, ECHCG; set-up: key: % herbicidal action vs untreated; 100 = plants died, 0 = like control; conditions: for herbicidal action ECHCG: Dosage 80 g/ha
Summary of the method: as §2

[10] = test system: Matricaria inodora; assay: Post-emergence herbicidal action, MATIN; set-up: key: % herbicidal action vs untreated; 100 = plants died, 0 = like control; conditions: for herbicidal action MATIN: Dosage 80 g/ha
Summary of the method: as §2

[11] = test system: Pharbitis purpurea; assay: Post-emergence herbicidal action, PHBPU; conditions: for herbicidal action PHBPU: Dosage 80 g/ha
Summary of the method: as §2

[12] = test system: Polygonum convolvulus; assay: Post-emergence herbicidal action, POLCO; conditions: Dosage 80 g/ha
Description: as §3

[13] = test system: Setaria viridis; assay: Post-emergence herbicidal action, SETVI; set-up: key: % herbicidal action vs untreated; 100 = plants died, 0 = like control; conditions: Dosage 80 g/ha
Summary of the method: as §2

[14] = test system: Stellaria media; assay: Post-emergence herbicidal action, STEME; set-up: key: % herbicidal action vs untreated; 100 = plants died, 0 = like control; conditions: for herbicidal action STEME: Dosage 80 g/ha
Summary of the method: as §2

[15] = test system: Veronica persica; assay: Post-emergence herbicidal action, VERPE; set-up: key: % herbicidal action vs untreated; 100 = plants died, 0 = like control; conditions: for herbicidal action VERPE: Dosage 80 g/ha
Summary of the method: as §2

[16] = test system: Viola tricolor; assay: Post-emergence herbicidal action, VIOTR; set-up: key: % herbicidal action vs untreated; 100 = plants died, 0 = like control; conditions: for herbicidal action VIOTR: Dosage 80 g/ha
Summary of the method: as §2

[17] = test system: Abutilon theophrasti; assay: Pre-emergence herbicidal action, ABUTH; conditions: dosage 320 g/ha
Summary of the method: as §1

[18] = test system: Pharbitis purpurea; assay: Pre-emergence herbicidal action, PHBPU; conditions: dosage 320 g/ha
Excerpt: 1. Pre-Emergence Herbicidal Action Against Harmful Plants Seeds of monocotyledonous and dicotyledonous weed plants and crop plants are laid out in sandy loam soil in wood-fiber pots and covered with soil. The compounds of the invention, formulated in the form of wettable powders (WP) or as emulsion concentrates (EC), are then applied to the surface of the covering soil in the form of an aqueous suspension or emulsion at a water application rate equating to 600 to 800 l/ha, with addition of 0.2% wetting agent. After the treatment, the pots are placed in a greenhouse and kept under good growth conditions for the trial plants. The damage to the test plants is scored visually after a test period of 3 weeks by comparison with untreated controls (herbicidal activity in percent (%): 100% activity=the plants have died, 0% activity=like control plants). […] The tables below illustrate, in an exemplary manner, the […] herbicidal action of the compounds according to the invention, the herbicidal activity being stated in percent. [table] In the experiments that follow, herbicidal action of numerous inventive compounds and the known compounds that are structurally closest from D1 (WO 2012/028579 A1) and D2 (WO 2018/202535 A1) were compared under the above-specified conditions by the pre-emergence and post-emergence method. The example numbers given in the tables relate to the compounds disclosed in the respective documents. In addition to the compounds disclosed in D1 and D2, the following compounds V-1 to V-14 that are encompassed by D1 or D2 but are not compounds specified therein were used in the comparative experiments: • V-1: 2-(methylsulfanyl)-3-(methylsulfinyl)-N-(1-methyl-1H-tetrazol-5-yl)-4-(trifluoromethyl)benzamide • V-2: 2-(methylsulfanyl)-3-(methylsulfonyl)-N-(1-methyl-1H-tetrazol-5-yl)-4-(trifluoromethyl)benzamide • V-3: 2,3-bis(ethylsulfanyl)-N-(1-methyl-1H-tetrazol-5-yl)-4-(trifluoromethyl)benzamide • V-4: 2-chloro-3-(ethylsulfanyl)-N-(1-methyl-1H-tetrazol-5-yl)-4-(trifluoromethyl)benzamide • V-5: 2-chloro-4-iodo-3-(methylsulfanyl)-N-(1-methyl-1H-tetrazol-5-yl)benzamide • V-6: 2-chloro-4-iodo-3-(methylsulfinyl)-N-(1-methyl-1H-tetrazol-5-yl)benzamide • V-7: 2-chloro-4-iodo-3-(methylsulfonyl)-N-(1-methyl-1H-tetrazol-5-yl)benzamide • V-8: 2-bromo-3-(methylsulfanyl)-N-(1-methyl-1H-tetrazol-5-yl)-4-(trifluoromethyl)benzamide • V-9: 2-bromo-3-(methylsulfinyl)-N-(1-methyl-1H-tetrazol-5-yl)-4-(trifluoromethyl)benzamide • V-10: 2-bromo-3-(methylsulfonyl)-N-(1-methyl-1H-tetrazol-5-yl)-4-(trifluoromethyl)benzamide • V-11: 2-bromo-3-(ethylsulfanyl)-N-(1-methyl-1H-tetrazol-5-yl)-4-(trifluoromethyl)benzamide • V-12: 2-bromo-3-(ethylsulfinyl)-N-(1-methyl-1H-tetrazol-5-yl)-4-(trifluoromethyl)benzamide • V-13: 2-bromo-3-(ethylsulfonyl)-N-(1-methyl-1-1H-tetrazol-5-yl)-4-(trifluoromethyl)benzamide • V-14: 2-cyclopropyl-3-(ethylsulfanyl)-N-(1-methyl-1H-tetrazol-5-yl)-4-(trifluoromethyl)benzamide Herbicidal Pre-Emergence Action: […]

[19] = test system: Viola tricolor; assay: Pre-emergence herbicidal action, VIOTR; conditions: dosage 320 g/ha
Summary of the method: as §1

[20] = test system: Cyperus esculentus; assay: Post-emergence herbicidal action, CYPES; set-up: key: % herbicidal action vs untreated; 100 = plants died, 0 = like control; conditions: Dosage 80 g/ha
Description: as §3

Row | Structure (SMILES) | herbicidal action AMARE [1] | herbicidal action MATIN [3] | herbicidal action STEME [4] | herbicidal action VERPE [5] | herbicidal action ABUTH [6] | herbicidal action AMARE [8] | herbicidal action ECHCG [9] | herbicidal action MATIN [10] | herbicidal action PHBPU [11] | herbicidal action SETVI [13] | herbicidal action STEME [14] | herbicidal action VERPE [15] | herbicidal action VIOTR [16] | further results
1 | CCn1nnnc1NC(=O)c1ccc(C)c(C[S+](C)[O-])c1Cl (centres unmarked) [Example 2-288] | 100% | 90% | 90% | 100% | 90 | 100 | 90 | 90 | 90 | 90 | 100 | 100 | 80 | herbicidal action ECHCG [2]: 100%; herbicidal action ALOMY [7]: 80; herbicidal action POLCO [12]: 90
2 | CCCn1nnnc1NC(=O)c1ccc(C(F)(F)F)c(CS(C)(=O)=O)c1S(C)(=O)=O [Example 3-199] | 90% | 100% | 80% | 100% | – | – | – | – | – | – | – | – | – | herbicidal action ABUTH [17]: 100%; herbicidal action PHBPU [18]: 80%; herbicidal action VIOTR [19]: 100%; Herbicidal action against ABUTH ([6]; post-emergence, dosage 80 g/ha): 90; Herbicidal action against AMARE ([8]; post-emergence, dosage 80 g/ha): 80; Herbicidal action against ECHCG ([9]; post-emergence, dosage 80 g/ha): 80; Herbicidal action against MATIN ([10]; post-emergence, dosage 80 g/ha): 80; Herbicidal action against PHBPU ([11]; post-emergence, dosage 80 g/ha): 90; Herbicidal action against STEME ([14]; post-emergence, dosage 80 g/ha): 80; Herbicidal action against VERPE ([15]; post-emergence, dosage 80 g/ha): 100; Herbicidal action against VIOTR ([16]; post-emergence, dosage 80 g/ha): 90
3 | Cc1c(C(=O)Nc2nnnn2C)ccc(S(C)(=O)=O)c1CS(C)(=O)=O [Example 1-39] | 100% | 100% | – | 90% | 90 | 90 | 80 | 90 | 80 | 90 | 80 | 90 | 90 | herbicidal action CYPES [20]: 80
